Like-named read-outs stand apart in the source and are kept apart here.
Test system: HT-29 cells
Experiment: 1,536-well high-content imaging ALDEFLUOR assay, HT-29
Format: cell-based, human
Details: for IC50: read-out: Aldefluor IC50 HT-29; for Activity in ALDEFLUOR assay, HT-29: semi-automated, active = high quality concentration response curve and >50% efficacy, up to 45.8 μM
Description: To miniaturize the assay into a 1536-well format amenable to qHTS, we chose MIA PaCa-2 and HT-29 because of their high levels of ALDH1A1(Fig 1A). Utilizing the 8-step protocol described by Ming et al. as a starting point, we developed a “semi-automated” protocol described in S1 Table. Briefly, we plated 1,000 cells in a volume of 5 μL/well into black-optical quality clear bottom 1,536-well plates, and allowed cells to attach overnight. Culture media was subsequently removed by inverting and centrifuging plates using a plate adaptor as previously described and replaced with 5 μL of a solution of either 500 or 100 nM BAAA substrate in ALDEFLUOR buffer. To identify cells based on nuclear staining, we also included 0.5 nM Hoechst 33342 in the above buffer. […] After incubating the plate for 30 minutes at 37°C, 5% CO2, 85% RH, the remaining substrate was removed by centrifugation as above and replaced with 3 μL of ALDEFLUOR buffer. Fluorescence was subsequently imaged using the IN Cell Analyzer 2200 high-content widefield fluorescence based imager and the resulting images were quantified using the IN Cell Investigator v1.6.2 analysis software (see Experimental Procedures for analysis details).
The ALDEFLUOR kit was purchased from […] Technologies (Vancouver, Canada; #01700). Cells (5 μL) were dispensed into black, optical quality (cyclic olefin copolymer) clear bottom, medium binding TC treated 1,536-well plates (Aurora Microplates, Whitefish MT) using a Multidrop Combi dispenser (ThermoFisher) and incubated overnight (37°C, 5% CO2, 85% RH). Media was subsequently removed by centrifuging plates upside down using a plate adaptor to collect media. A solution of BAAA substrate ([…] Technologies) and Hoechst 33342 (ThermoFisher, final concentrations of 500 nM and 0.5 nM, respectively) in ALDEFLUOR buffer ([…] Technologies #01700) was dispensed onto cells using a Multidrop Combi followed by immediate transfer (23 nL) of compound or control solutions using a Wako Pin-tool (final percentage of DMSO in the cell plates was 0.5%). Unless otherwise noted, all compounds were assayed as 16-point dilutions spanning a final concentration range of 1.4 nM to […]. […] Cells were incubated for 30 minutes or the indicated amount of time at 37°C, 5% CO2, 85% RH to allow the conversion of BAAA into BAA. Supernatant was subsequently removed by centrifugation as described above, then ALDEFLUOR buffer (3 μl) was dispensed by Multidrop Combi before imaging on an IN Cell 2200 (GE Healthcare).
The above assay was modified for an online robotic screening system. After cell plating and overnight incubation, 4 μL of media were removed using a 64-tip metal aspirator head on a Wako aspirator station, leaving 1 μL remaining in the well, followed by a 4 μL dispense of BAAA and Hoechst 33342 in ALDEFLUOR buffer, for a final concentration of 500 nM and 0.5 nM, respectively. Immediately following the dispense, 23 nL of compound or control solutions were transferred using a Wako Pin-tool. Cells were incubated for 30 minutes at 37°C, 5% CO2, 85% RH, followed by a 4 μL media removal using the Wako aspirator, and a subsequent 3 μL addition of ALDEFLUOR buffer. Plates were then immediately read on the IN Cell 2200 as described below.
For images captured on the IN Cell 2200 widefield automated microscope, a 10x 0.45 NA Plan Apo objective lens was used to capture the entire well of the 1,536-well plate using standard DAPI (390/18x, 432/48m) and FITC (475/28x, 525/48m) filter sets at 50 msec and 100 msec exposures, respectively. Images were subsequently analyzed using IN Cell Investigator v1.6.2 analysis software’s canned Multi-Target Analysis algorithm (GE Healthcare). Hoechst stained nuclei were identified using top hat segmentation with a minimum area of 75 μm^2 and sensitivity of 93. […]

[1] = validation set, semi-automated protocol, 16-point dilution, 1,000 cells/well, 500 nM BAAA, 30 min
[2] = Homo sapiens, HT-29, 0.5 h, validation set, semi-automated protocol, 16-point dilution, 1,000 cells/well, 500 nM BAAA, 30 min

Molecule | IC50 [1] | Activity in ALDEFLUOR assay, HT-29 | other results
COc1ccc(C(=O)CCN(C)C)cc1F [Aldi-2] | 17.5 µM | – | –
Cc1nc2ccccc2n1S(=O)(=O)c1ccc(F)cc1 [CB7] | – | tested negative | –
COc1cccc2cc(C(=O)CC3(O)C(=O)N(Cc4ccccc4)c4ccccc43)c(=O)oc12 (centres unmarked) [CID 2929292] | – | tested negative | –
CC(C)=CCCC(C)=CC=O (mixture of isomers) [Citral] | 26.6 µM | – | IC50 [2]: ~27 µM
Cc1cc2c(C(C)C)c(O)c(O)c(C=O)c2c(O)c1-c1c(C)cc2c(C(C)C)c(O)c(O)c(C=O)c2c1O [Gossypol] | – | active | IC50 (Homo sapiens, HT-29, 0.5 h): 16.5 µM
CVT-10216 | – | tested negative | –
CC(C)(C)c1ccc(S(=O)(=O)/C=C/C#N)cc1 [Bay-11-7085] | 14.3 µM | – | –
CCOc1ccc(NCC(=O)Nc2ccc(Cl)cc2C)cc1 [CID 725345] | 14.5 µM | – | –
O=c1c(-c2ccc(O)cc2)coc2cc(O[C@@H]3O[C@H](CO)[C@@H](O)[C@H](O)[C@H]3O)ccc12 [Daidzin] | – | tested negative | –
CCN(CC)C(=S)SSC(=S)N(CC)CC [Disulfiram] | – | – | IC50 [2]: 10.9 µM
CCN(CC)c1ccc(C=O)cc1 [DEAB, 4-N,N-diethylaminobenzaldehyde] | 1.69 µM | – | –
O=C1Nc2ccccc2C1=O [indoline-2,3-dione] | – | – | IC50 [2]: 17.8 µM
Nc1ccccc1C(=O)CC(N)C(=O)O (centres unmarked) [Kynurenine] | – | tested negative | –
C#CCN(C)Cc1ccccc1 [Pargyline] | – | active | IC50 [2]: 33.5 µM

From article PMC5271370, “A High-Content Assay Enables the Automated Screening and Identification of Small Molecules with Specific ALDH1A1-Inhibitory Activity” (PLoS ONE, 2017)
